Test results reported in patent US9145437B2, “Urea compounds” (Eli Lilly and Company, priority 2013, dated 2015).

Assays:
mouse SGLT1 = molecular target: T1, mouse SGLT1 (Mus musculus, UniProt Q8C3K6); assay: Sodium-dependent 14C-AMG uptake assay in CHO-K1 cells expressing mouse SGLT1; type: cell-based; settings: n=5
T1 construct: expressed in transfected cells
T1 sequence (Q8C3K6 1-665): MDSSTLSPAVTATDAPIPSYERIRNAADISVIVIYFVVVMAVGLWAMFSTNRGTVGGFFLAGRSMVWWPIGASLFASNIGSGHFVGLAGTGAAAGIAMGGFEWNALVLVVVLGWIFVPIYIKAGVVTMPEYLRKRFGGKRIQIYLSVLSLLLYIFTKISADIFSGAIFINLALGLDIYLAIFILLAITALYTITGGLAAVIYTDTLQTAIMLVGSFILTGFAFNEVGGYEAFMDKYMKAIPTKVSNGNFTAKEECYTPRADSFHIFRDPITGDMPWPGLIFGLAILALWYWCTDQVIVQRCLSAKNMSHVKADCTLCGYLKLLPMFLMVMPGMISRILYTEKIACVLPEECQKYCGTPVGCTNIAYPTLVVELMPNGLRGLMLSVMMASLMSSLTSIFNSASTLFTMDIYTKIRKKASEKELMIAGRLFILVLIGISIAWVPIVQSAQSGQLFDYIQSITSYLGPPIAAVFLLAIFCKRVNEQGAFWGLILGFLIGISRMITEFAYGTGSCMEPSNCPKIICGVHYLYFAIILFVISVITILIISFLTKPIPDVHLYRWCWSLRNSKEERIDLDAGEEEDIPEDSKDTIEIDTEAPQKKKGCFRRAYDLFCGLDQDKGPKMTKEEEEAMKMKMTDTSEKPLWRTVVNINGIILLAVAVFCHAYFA
Excerpt: (§1) The cDNA encoding human SGLT1 (slc5al, NM_000343) and mouse SGLT1 (slc5al, NM_019810.4) are purchased from Openbiosystems, Invitrogen and Openbiosystems, respectively. The cDNA is cloned into pcDNA3.1+ for mammalian expression and is stably transfected into Chinese hamster ovary (CHO)-K1 cells using standard mammalian transfection procedures. An SGLT-expressing sub-clone of each over-expressing cell line is selected based on resistance to neomycin (Geneticin, Invitrogen) and activity in the ^14C-α-methyl-D-glucopyranoside (^14C-AMG) uptake assay (see below). Stable SGLT-expressing cells are maintained using standard cell culture techniques.
(§2) The SGLT activity is measured as sodium-dependent ^14C-AMG uptake in the above cell lines described as follows. One hundred μL of culture medium containing 30,000 cells are seeded to each well of a 96-well BioCoat poly-D-lysine plate (Becton Dickson) and cultured at 37° C. overnight. The culture medium is aspirated and cells are washed twice with 200 μL of Reaction Buffer (140 mM NaCl, 2 mM KCl, 1 mM CaCl2, MgCl2, and 14 mM N-2-hydroethylpiperrazine-N′-2-ethanesulfonic acid (Hepes), pH 7.5). The excess buffer is tapped out onto paper towels. Thirty-five μL of Reaction Buffer are added to each well. […] After mixing, the scintillation signal in the plate is counted in a MicroBeta (PerkinElmer). […]

C57Bl/6 mice = assay: Glucose lowering effects in oral glucose tolerance test (OGTT); type: in vivo, mouse; set-up: Baseline Adjusted AUC (glucose): unit not given here; settings: for Glucose 20 Minute / Glucose 40 Minute / Glucose 60 Minute / Baseline Adjusted AUC (glucose) / Glucose Cmax / Glucose Tmax / Glucose 0 Minute: 10 mg/kg oral, Mean ± SEM; for Glucose 20 Minute: 20 min after 3 g/kg dextrose; for Glucose 40 Minute: 40 min after 3 g/kg dextrose; for Glucose 60 Minute: 60 min after 3 g/kg dextrose; for Glucose 0 Minute: baseline before 3 g/kg dextrose
Experimental: The test compound is formulated by adding a vehicle of 1% hydroxyethylcellulose, 0.25% Tween® 80 w/antifoam 0.05% to preweighed test compound to make a 1 mg/ml solution. The mixture is probe sonicated for approximately 1 minute. A stir bar is added, and the resulting suspension is stirred continuously throughout dosing.
The first set of mice receiving an OGTT 18 hours after compound administration, the second 8 hours after compound administration. The first set of animals are weighed and body weights used to determine study groups (n=5), within a working range of 26-30 g. After grouping, the mice are orally gavaged with 10 ml/kg of test compound preparation or vehicle, thirty seconds apart. […] Both sets, 18 and 8 hour OGTT, of mice are then fasted overnight by removing access to food, late afternoon before test day. The following morning, the 8 hour OGTT mice are weighed and bled (via tail snip) for glucose. Study groups (n=5) are determine using fasted glucose values, within a working range of 80-100 mg/dl. After grouping the mice are orally gavaged with compound, thirty seconds apart. These mice then receive an OGTT 8 hours after compound administration.
At eight and eighteen hours after each respective compound treatment is started, a baseline blood sample is taken for measuring glucose (from the first animal). The animal is then immediately given an oral dose of 50% dextrose (Hospira®) at 3 g/kg. Blood samples are taken for glucose, exactly thirty seconds apart, by tail vein so that blood is collected in each animal at 20, 40, and 60 minutes after the dextrose dose.

human SGLT1 = molecular target: T2, human SGLT1 (Homo sapiens, UniProt P13866); assay: Sodium-dependent 14C-AMG uptake assay in CHO-K1 cells expressing human SGLT1; type: cell-based; settings: n=5
T2 construct: expressed in transfected cells
T2 sequence (P13866 1-664): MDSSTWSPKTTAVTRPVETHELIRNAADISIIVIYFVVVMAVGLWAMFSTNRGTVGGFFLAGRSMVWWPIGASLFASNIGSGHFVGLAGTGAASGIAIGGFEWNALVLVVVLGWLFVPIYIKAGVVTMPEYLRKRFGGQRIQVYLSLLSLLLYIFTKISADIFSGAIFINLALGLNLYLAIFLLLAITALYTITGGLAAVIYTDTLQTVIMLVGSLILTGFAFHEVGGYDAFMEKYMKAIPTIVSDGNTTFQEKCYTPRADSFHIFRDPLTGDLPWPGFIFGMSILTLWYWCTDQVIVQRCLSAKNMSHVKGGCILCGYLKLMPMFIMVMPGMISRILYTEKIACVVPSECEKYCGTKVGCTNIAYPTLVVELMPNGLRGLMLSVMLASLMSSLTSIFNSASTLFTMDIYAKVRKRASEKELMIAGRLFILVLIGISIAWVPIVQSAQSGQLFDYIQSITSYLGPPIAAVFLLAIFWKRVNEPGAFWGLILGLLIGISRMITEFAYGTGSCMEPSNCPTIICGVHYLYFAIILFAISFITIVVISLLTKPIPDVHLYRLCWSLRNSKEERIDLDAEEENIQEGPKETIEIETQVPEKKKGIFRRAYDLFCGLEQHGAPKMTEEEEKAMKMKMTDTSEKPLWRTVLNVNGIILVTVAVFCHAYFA
Excerpt: as §1, §2

## Cc1cccc2c1c(Cc1ccc(OCCCN3CCCC4(CCN(C(=O)CNC(=O)NCC(C)C)CC4)C3)cc1)cn2[C@@H]1O[C@H](CO)[C@@H](O)[C@H](O)[C@H]1O [Example 1, 1-isobutyl-3-[2-[4-[3-[4-[[4-methyl-1-[(2R,3R,4S,5S,6R)-3,4,5-trihydroxy-6-(hydroxymethyl)tetrahydropyran-2-yl]indol-3-yl]methyl]phenoxy]propyl]-4,9-diazaspiro[5.5]undecan-9-yl]-2-oxo-ethyl]urea]
Mouse SGLT1
  IC50: 14.9 ± 10.4 nM
C57Bl/6 mice; OGTT 8 hrs post dose
  Glucose 20 Minute: 114 ± 3.36 mg/dL
  Glucose 40 Minute: 131 ± 6.81 mg/dL
  Glucose 60 Minute: 125.8 ± 7.52 mg/dL
  Baseline Adjusted AUC (glucose): 2370 ± 315
  Glucose Cmax: 132.9 ± 6.68 mg/dL
  Glucose Tmax: 44 ± 7.48 min
  Glucose 0 Minute: 75.8 ± 2.48 mg/dL
C57Bl/6 mice; OGTT 18 hrs post dose
  Glucose 20 Minute: 121.4 ± 5.16 mg/dL
  Glucose 40 Minute: 127 ± 9.78 mg/dL
  Glucose 60 Minute: 125 ± 7.27 mg/dL
  Baseline Adjusted AUC (glucose): 2258 ± 252
  Glucose Cmax: 134.2 ± 6.72 mg/dL
  Glucose Tmax: 44 ± 7.48 min
  Glucose 0 Minute: 79.2 ± 4.51 mg/dL
C57Bl/6 mice; normal glycemic C57Bl/6 mouse, eight or eighteen hours after administration
  glucose excursion after oral bolus of 50% dextrose: decrease
Human SGLT1
  IC50: 35.2 ± 14.1 nM
